Reference: patent US11655210B2, “Compound for improving L-arginine bioavailability” (The General Hospital Corporation, priority 2018, dated 2023)
Where two headings read alike, the source gives them in different places.

How the values were obtained:
[1] = system: Human Brain Microvascular Endothelial Cells (HBMVEC); assay: CellTox Green 24-hour dose dependent cytotoxicity assay; assay type: cell-based; conditions: for toxicity in the cellular model: 100 nM, 10 μM, 100 μM, 0.5 mM
Protocol: Cell cultures were prepared using the following general procedures.
1. Under aseptic conditions 1×20 mm sterile tissue culture dish was coated with sterile 1:100 collagen for two hours at room temperature.
2. Under aseptic conditions 2× sterile 96 well-plates were coated with sterile 50 μL 1:100 collagen for two hours at room temperature.
3. After 2 hr collagen was recollected into 50 mL conical tube.
4. The petri dish and 2×96 well-plates were washed with warmed PBS.
5. Once 60% confluency of HBMVEC was observed, the plate was prepped for passage.
6. Media was aspirated from dish and washed with 1×PBS.
7. 1 mL of Trypsin was added, and the plate was transferred to 37° C. incubator for 1-2 min until cells appeared detached.
8. The plate was transferred back into sterile conditions and 2 mL of EndoGro Basal Media was added to inhibit Trypsin reaction.
9. Cells were pipetted 20× and thoroughly mixed before transferring into 25 mL of EndoGro Basal Media.
10. 100 μL of this mixture was added into each well both 96 well-plate.
11. Left over 5.8 mL of cell solution was transferred to petri dish previously coated with collagen and washed with 1×PBS.
12. Plates were incubated for 48 hours at 37° C.
The following procedures were performed for the cell cytotoxicity assay (CellTox™ Green Cytotoxicity Assay; Promega Corporation). See also CellTox™ Green Cytotoxicity Assay, Instructions for Use of Products G8741, G8742, G8743, and G8731, revised May 2015, the disclosure of which is incorporated herein by reference in its entirety.
1. Samples containing 1:1000 L-Arginine (L-Arg; 100 nM, 10 μM, 100 μM, or 0.5 mL) or 1:1000 of 2-amino-5-guanidino-N-(4-guanidinobutyl)pentanamide (Example 1; 100 nM, 10 μM, 100 μM, or 0.5 mL) were prepared with EndoGro Basal Media without supplements (MWOS) into sterile 10×1 mL microcentrifuge tubes. For concentrations of 0, 1:1000 PBS to MWOS was made.
2. […]
4. Once the wells were treated, plates were incubated at 37° C. for 24 hours and analyzed at 485-500 nm/520-530 nm after cytotoxicity assay treatment.

[2] = system: NO production in Human Brain Microvascular Endothelial Cells (HBMVEC); assay: In vitro NO detection assay (Nitric Oxide Cell-Based HTS Assay); conditions: 100 nM to 0.5 mM, analyzed every 15 mins for 1 h, Example 1 versus L-arginine, FIGS. 3-4
Protocol: “A” Bars: […]; “B” bars: 10 μM; “C” bars: 100 μM; “D” bars: 0.5 mM.
The following general procedures were performed for the NO detection assay. See, e.g., Nitric Oxide Cell-Based HTS Assay Kit technical data sheet, Biovision Incorporated; Catalog #K979-10, September 2016, the disclosure of which is incorporated herein by reference in its entirety.
1. Performed cell culture protocol as described in Example 2.
2. Warmed all reagents in 37° C. water bath.
3. Master mix: 3 μL dye to 1.5 mL of Assay buffer for at least 60 wells.
4. Standard curve master mix: 5 μL NO stock solution to 95 μL NO Buffer for at least 60 wells.
5. Media was aspirated from column 1B-1G before aliquoting standard curve solution, as shown below in Table 2.
6. Media was aspirated from 2B-2G through 6B-G before 50 μL aliquots of staining dye. This step was repeated for […] through 10B-10G.
7. Plates were incubated for 1 hour in 37° C.
8. After 1 hour, plates were transferred back into sterile conditions and washed 2× with EndoGro Media (previously warmed to 37° C.) before aliquoting the concentrations shown in Table 3 into each well.
9. Plates were incubated at 37° C. and analyzed every 15 mins for 1 h.

[3] = cited from earlier work; for baseline plasma concentration of L-arginine: normal diet over 8 hours

Structure (SMILES)	toxicity in the cellular model [1]	toxicity in comparison to L-arginine ([1]; FIG. 2)	capacity for mediating NO production [2]	baseline plasma concentration of L-arginine ([3]; converted value)	baseline plasma concentration of L-arginine [3]	peak concentration ([3]; single oral 10 g dose, converted value)	absolute bioavailability ([3]; single oral 10 g dose)	peak concentration ([3]; single oral 10 g dose)	time of peak concentration after administration ([3]; single oral 10 g dose)
N=C(N)NCCCCNC(=O)C(N)CCCNC(=N)N (centres unmarked) [Example 1, 2-amino-5-guanidino-N-(4-guanidinobutyl)pentanamide]	non-toxic	no significant difference in toxicity	nearly identical capacity for mediating NO production	–	–	–	–	–	–
N=C(N)NCCC[C@H](N)C(=O)O [L-arginine]	non-toxic	–	nearly identical capacity for mediating NO production	~86.7 µM	about 15.1±2.6 μg/mL	~287.0 µM	about 20%	50.0 µg/mL	1 h
